Experimental data published in ChEMBL document CHEMBL1143431, “Synthesis and evaluation of pyrazolo[1,5-b]pyridazines as selective cyclin dependent kinase inhibitors” (Bioorg Med Chem Lett, 2008).

Assays:
[1] = biological target: Cyclin-dependent kinase 4 (Homo sapiens, UniProt P11802); assay: Inhibition of CDK4 by radioactive glutathione plate-binding assay
[2] = biological target: Glycogen synthase kinase-3 beta (Homo sapiens, UniProt P49841); assay: Inhibition of GSK3-beta by scintillation proximity assay
[3] = biological target: Cyclin-dependent kinase 2 (Homo sapiens, UniProt P24941); assay: Inhibition of human CDK2 by HTRF assay
Mus musculus [4] = assay: Dose normalized AUC in orally dosed mouse; format: ADME, organism-based; settings: in vivo, po
[5] = biological target: Vascular endothelial growth factor receptor 2 (Homo sapiens, UniProt P35968); assay: Inhibition of VEGFR2 by HTRF assay
[6] = Metabolic stability at mouse liver S9 fraction after 60 mins; format: ADME, subcellular; settings: read-out: Stability
Mus musculus [7] = assay: Dose normalized AUC in ip dosed mouse; format: ADME, organism-based; settings: in vivo

Chain of Cyclin-dependent kinase 4 (P11802 whole entry): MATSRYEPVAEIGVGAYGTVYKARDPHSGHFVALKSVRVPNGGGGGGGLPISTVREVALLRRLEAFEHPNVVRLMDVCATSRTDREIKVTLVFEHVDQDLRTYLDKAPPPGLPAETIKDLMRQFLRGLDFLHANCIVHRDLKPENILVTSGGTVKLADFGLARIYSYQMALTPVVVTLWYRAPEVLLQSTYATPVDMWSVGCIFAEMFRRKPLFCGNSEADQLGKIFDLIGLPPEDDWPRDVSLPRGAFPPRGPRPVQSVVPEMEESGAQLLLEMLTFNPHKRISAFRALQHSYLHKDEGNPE
Chain of Vascular endothelial growth factor receptor 2 (P35968 whole entry): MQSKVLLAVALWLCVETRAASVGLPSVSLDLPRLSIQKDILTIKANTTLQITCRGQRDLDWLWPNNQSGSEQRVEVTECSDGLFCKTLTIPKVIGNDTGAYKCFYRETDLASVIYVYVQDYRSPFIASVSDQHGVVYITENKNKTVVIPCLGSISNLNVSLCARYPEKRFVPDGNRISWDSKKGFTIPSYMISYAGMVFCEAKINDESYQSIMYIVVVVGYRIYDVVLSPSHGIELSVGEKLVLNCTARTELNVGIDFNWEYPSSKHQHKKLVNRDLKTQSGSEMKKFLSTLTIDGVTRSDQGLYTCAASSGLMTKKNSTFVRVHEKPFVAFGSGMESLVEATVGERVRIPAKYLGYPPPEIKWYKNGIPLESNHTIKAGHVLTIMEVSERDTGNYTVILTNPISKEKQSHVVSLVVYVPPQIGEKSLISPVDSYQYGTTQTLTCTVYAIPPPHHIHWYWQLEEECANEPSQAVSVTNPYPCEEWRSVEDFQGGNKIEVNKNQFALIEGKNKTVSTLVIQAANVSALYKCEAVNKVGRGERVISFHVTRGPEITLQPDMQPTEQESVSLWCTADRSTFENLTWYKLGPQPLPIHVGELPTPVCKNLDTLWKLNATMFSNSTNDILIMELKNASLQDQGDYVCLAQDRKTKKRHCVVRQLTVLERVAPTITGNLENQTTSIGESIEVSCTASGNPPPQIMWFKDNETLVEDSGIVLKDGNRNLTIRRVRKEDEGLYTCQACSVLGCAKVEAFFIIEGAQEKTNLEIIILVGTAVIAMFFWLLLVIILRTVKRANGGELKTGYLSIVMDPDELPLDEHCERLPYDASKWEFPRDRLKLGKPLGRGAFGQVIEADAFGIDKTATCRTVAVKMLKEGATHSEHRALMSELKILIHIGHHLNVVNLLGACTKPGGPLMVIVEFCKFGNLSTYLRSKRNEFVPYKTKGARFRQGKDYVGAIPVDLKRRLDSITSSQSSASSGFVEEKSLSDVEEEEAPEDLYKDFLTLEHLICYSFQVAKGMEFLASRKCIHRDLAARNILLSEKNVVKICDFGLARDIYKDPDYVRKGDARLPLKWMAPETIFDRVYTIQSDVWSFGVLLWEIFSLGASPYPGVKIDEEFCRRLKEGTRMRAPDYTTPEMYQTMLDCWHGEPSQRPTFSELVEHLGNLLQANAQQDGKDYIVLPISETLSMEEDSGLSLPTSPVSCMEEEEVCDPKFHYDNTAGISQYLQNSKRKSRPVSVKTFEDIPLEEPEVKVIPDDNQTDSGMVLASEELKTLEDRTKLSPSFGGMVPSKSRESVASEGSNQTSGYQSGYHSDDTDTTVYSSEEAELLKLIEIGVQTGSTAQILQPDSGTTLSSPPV
Chain of Glycogen synthase kinase-3 beta (P49841 whole entry): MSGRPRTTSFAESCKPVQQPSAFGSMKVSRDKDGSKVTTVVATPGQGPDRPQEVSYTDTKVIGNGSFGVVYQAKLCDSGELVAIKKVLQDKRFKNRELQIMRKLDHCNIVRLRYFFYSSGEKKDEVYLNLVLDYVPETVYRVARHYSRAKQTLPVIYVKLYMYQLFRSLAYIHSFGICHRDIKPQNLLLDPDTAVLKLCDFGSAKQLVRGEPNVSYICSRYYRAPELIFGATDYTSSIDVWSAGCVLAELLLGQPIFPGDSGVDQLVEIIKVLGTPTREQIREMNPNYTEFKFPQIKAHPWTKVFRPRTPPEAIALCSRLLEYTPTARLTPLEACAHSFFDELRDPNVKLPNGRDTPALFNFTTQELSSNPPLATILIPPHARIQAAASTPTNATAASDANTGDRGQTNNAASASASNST

Row | Compound | IC50 [1] [µM] | IC50 [2] [µM] | IC50 [3] [µM] | also measured
1 | CC(C)Oc1ccc2c(-c3ccnc(NC4CC4)n3)cnn2n1 | 1.6 | 25 |  | AUC (Mus musculus [4]): > 1000 ng·kg·h/mg/mL
2 | CCCCc1nn2ncccc2c1-c1ccnc(NC2CC2)n1 | > 40 |  |  | IC50 [5]: 2.5 µM
3 | c1cc(-c2cnn3nc(NC4CCCC4)ccc23)nc(NC2CC2)n1 | 0.16 | 25 |  | 
4 | C=Cc1ccc2c(-c3ccnc(NC4CC4)n3)cnn2n1 | 0.2 | 3.2 |  | 
5 | c1cc(-c2cnn3nc(N4CCCC4)ccc23)nc(NC2CC2)n1 | 0.5 | 25 |  | 
6 | Oc1ccc2c(-c3ccnc(NC4CC4)n3)cnn2n1 | 1.3 | 25 |  | 
7 | Cc1nn2ncccc2c1-c1ccnc(NC2CC2)n1 | 0.8 |  |  | IC50 [5]: > 20 µM
8 | c1csc(-c2ccc3c(-c4ccnc(NC5CC5)n4)cnn3n2)c1 | 0.25 | > 32 |  | 
9 | CN(C)CC(O)COc1ccc(Nc2nccc(-c3cnn4nc(N5CCOCC5)ccc34)n2)cc1 (stereo not given) | 0.038 |  |  | remaining at 1 h [6]: 46%; AUC (Mus musculus [7]): > 7000 ng·kg·h/mg/mL
10 | CN1CCN(c2ccc(Nc3nccc(-c4cnn5nc(-c6ccc(F)cc6)ccc45)n3)cc2)CC1 | 0.026 | > 25 | 0.74 | 
11 | COc1ccc2c(-c3ccnc(NC4CC4)n3)cnn2n1 | 2 | 25 |  | 
12 | c1cnn2ncc(-c3ccnc(NCCCN4CCOCC4)n3)c2c1 [GW683109X] | 3.2 |  |  | 
13 | CCc1nn2ncccc2c1-c1ccnc(NC2CC2)n1 [GW683768X] | 2 |  |  | IC50 [5]: 3.2 µM
14 | c1cc(-c2cnn3nc(N4CCOCC4)ccc23)nc(NC2CC2)n1 [GW708336X] | 0.4 |  |  | AUC (Mus musculus [4]): > 1000 ng·kg·h/mg/mL

Further lines, with some results ahead:

Row | IC50 [1] [µM] | IC50 [2] [µM] | IC50 [3] [µM] | Compound | also measured
15 | 0.008 | 0.005 | 0.003 | O=[N+]([O-])c1ccc(Nc2nccc(-c3cnn4ncccc34)n2)cc1 | 
16 | 0.025 | 0.005 | 0.002 | N#Cc1ccc(Nc2nccc(-c3cnn4ncccc34)n2)cc1 | 
17 | 0.012 | 0.2 | 0.1 | CN1CCN(c2ccc(Nc3nccc(-c4cnn5ncccc45)n3)cc2)CC1 | IC50 [5]: 0.4 µM
18 | 0.25 | > 32 |  | Fc1ccc(-c2ccc3c(-c4ccnc(NC5CC5)n4)cnn3n2)cc1 | 
19 | 0.008 | 0.02 | 0.04 | CCN(CC)CCNC(=O)c1cccc(Nc2nccc(-c3cnn4ncccc34)n2)c1 | 
20 | 0.045 | 0.85 | 0.23 | CC(C)Oc1ccc2c(-c3ccnc(Nc4ccc(N5CCN(C)CC5)cc4)n3)cnn2n1 | 
21 | 0.025 |  |  | CCc1nn2ncccc2c1-c1ccnc(Nc2ccc(N3CCN(C)CC3)cc2)n1 | IC50 [5]: 0.063 µM
22 | 0.8 |  |  | CCCCc1nn2ncccc2c1-c1ccnc(Nc2ccc(N3CCN(C)CC3)cc2)n1 | IC50 [5]: 0.025 µM
23 | 0.016 | 0.008 | 0.003 | c1cc(Nc2nccc(-c3cnn4ncccc34)n2)cc(-c2cocn2)c1 | 
24 | 0.012 | 0.079 | 0.05 | CCN(CC)Cc1cccc(Nc2nccc(-c3cnn4ncccc34)n2)c1 | 
25 | 0.16 | 0.02 | 0.016 | NC(=O)c1ccc(Nc2nccc(-c3cnn4ncccc34)n2)cc1 | 
26 | 0.79 | 0.05 | 0.04 | O=C(O)c1ccc(Nc2nccc(-c3cnn4ncccc34)n2)cc1 | 
27 | 0.05 |  |  | Cc1nn2ncccc2c1-c1ccnc(Nc2ccc(N3CCN(C)CC3)cc2)n1 | IC50 [5]: 0.063 µM
28 | 0.08 |  |  | c1cnn2ncc(-c3ccnc(NC4CC4)n3)c2c1 | IC50 [5]: > 20 µM; remaining at 1 h [6]: 85%
29 | 0.0003 |  | 0.0003 | O=[N+]([O-])c1cccc(Nc2nccc(-c3cnn4ncccc34)n2)c1 | 
30 | 1 | > 32 | 1 | FC(F)(F)CNc1nccc(-c2cnn3ncccc23)n1 [GW683003X] | 
31 | 0.004 |  | 0.002 | N#Cc1cccc(Nc2nccc(-c3cnn4ncccc34)n2)c1 [GW778894X] | 
32 | 1 |  | 1 | Clc1ccc(CNc2nccc(-c3cnn4ncccc34)n2)cc1 [GW781673X] | 
33 |  | 0.016 | 0.04 | CC(C)c1ccc(Nc2nccc(-c3cnn4ncccc34)n2)cc1 [GW805758X] | 
